pIC50: −log10 of the molar value.
Target: T1, GST-Xa-hAAK1 (Homo sapiens, UniProt Q2M2I8)
T1 construct: made in house
Experiment: AAK1 kinase assay
Assay type: biochemical
Details: ATP 22 μM, 3 hours at room temperature
Procedure: The assays were performed in U-bottom 384-well plates. […] The reactions were initiated by the combination of bacterially expressed, GST-Xa-hAAK1 with substrates and test compounds. The reactions were incubated at room temperature for 3 hours and terminated by adding 60 μl of 35 mM EDTA buffer to each sample. The reactions were analyzed on the Caliper LabChip 3000 (Caliper, Hopkinton, Mass.) by electrophoretic separation of the fluorescent substrate and phosphorylated product. […] Compounds were dissolved at 10 mM in dimethylsulfoxide (DMSO) and evaluated at eleven concentrations. IC50 values were derived by non-linear regression analysis.

T1 sequence (Q2M2I8 whole entry): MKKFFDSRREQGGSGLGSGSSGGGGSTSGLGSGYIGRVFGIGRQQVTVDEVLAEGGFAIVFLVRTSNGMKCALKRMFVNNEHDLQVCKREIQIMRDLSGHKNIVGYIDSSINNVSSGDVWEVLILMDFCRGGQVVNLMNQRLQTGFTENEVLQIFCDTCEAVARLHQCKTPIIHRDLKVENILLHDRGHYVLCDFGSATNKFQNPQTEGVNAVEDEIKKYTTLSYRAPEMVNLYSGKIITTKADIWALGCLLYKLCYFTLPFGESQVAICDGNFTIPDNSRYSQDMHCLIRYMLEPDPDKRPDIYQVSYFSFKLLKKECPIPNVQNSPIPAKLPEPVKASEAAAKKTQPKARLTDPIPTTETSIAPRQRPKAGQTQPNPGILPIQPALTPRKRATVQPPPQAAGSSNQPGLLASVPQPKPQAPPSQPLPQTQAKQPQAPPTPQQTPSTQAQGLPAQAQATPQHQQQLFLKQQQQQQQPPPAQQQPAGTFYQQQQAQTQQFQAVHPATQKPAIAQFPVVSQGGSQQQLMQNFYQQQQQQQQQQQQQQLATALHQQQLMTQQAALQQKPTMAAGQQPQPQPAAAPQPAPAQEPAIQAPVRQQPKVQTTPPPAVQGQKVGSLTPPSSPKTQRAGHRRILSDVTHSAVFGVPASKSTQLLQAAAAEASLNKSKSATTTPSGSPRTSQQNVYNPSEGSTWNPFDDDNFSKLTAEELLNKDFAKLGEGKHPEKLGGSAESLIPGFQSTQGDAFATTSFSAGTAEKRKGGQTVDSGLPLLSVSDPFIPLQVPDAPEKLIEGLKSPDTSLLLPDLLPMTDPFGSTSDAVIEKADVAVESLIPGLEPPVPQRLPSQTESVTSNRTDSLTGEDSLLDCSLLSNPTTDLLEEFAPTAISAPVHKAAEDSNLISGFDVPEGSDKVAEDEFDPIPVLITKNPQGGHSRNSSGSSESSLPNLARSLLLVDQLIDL

pIC50 (given as IC50 range) | Structure (SMILES) | pIC50
5.70 to 7.00 | Cc1nccc2c1c(=O)n(C)c1cc(OC[C@@H](N)CC(C)C)c(S(C)(=O)=O)cc21 [Example 76, (S)-8-(2-amino-4-methylpentyloxy)-4,6-dimethyl-9-(methylsulfonyl)benzo[c][2,7]naphthyridin-5(6H)-one] | –
5.70 to 7.00 | CC(=O)Nc1cc2c(cn1)c(=O)n(C)c1cc(OC[C@@H](N)CC(C)C)ccc21 [Example 18, (S)—N-(8-(2-amino-4-methylpentyloxy)-6-methyl-5-oxo-5,6-dihydrobenzo[c][2,7]naphthyridin-2-yl)acetamide] | –
5.70 to 7.00 | Cc1cc2c(cn1)c(=O)n(C)c1cc(OC[C@@H](N)CC(C)C)c(Br)cc21 [Example 66] | –
8.00 to 9.00 | Cc1nccc2c1c(=O)n(C)c1cc(OC[C@@H](N)CC(C)C)c(CO)cc21 [Example 71, (S)-8-(2-amino-4-methylpentyloxy)-9-(hydroxymethyl)-4,6-dimethylbenzo[c][2,7]naphthyridin-5(6H)-one] | –

The next lines start with the molecule.

Structure (SMILES) | pIC50 (given as IC50 range) | pIC50
CC(C)C[C@H](N)COc1cc2c(cc1O)c1ccncc1c(=O)n2C [Example 7, (S)-8-(2-amino-4-methylpentyloxy)-9-hydroxy-6-methylbenzo[c][2,7]naphthyridin-5(6H)-one] | – | 7.96
Cc1nccc2c1c(=O)n(C)c1cc(OCC(N)CC(F)(F)F)ccc21 (single isomer, unassigned) [Example 91] | 7.00 to 8.00 | –
COC[C@H](N)COc1ccc2c3ccncc3c(=O)n(C)c2c1 [Example 69, (S)-8-(2-amino-3-methoxypropoxy)-6-methylbenzo[c][2,7]naphthyridin-5(6H)-one] | 7.00 to 8.00 | –
Cc1nccc2c1c(=O)n(C)c1cc(OC[C@H](CC(C)C)N(C)C)ccc21 [Example 40, (S)-8-((2-(dimethylamino)-4-methylpentyl)oxy)-4,6-dimethylbenzo[c][2,7]naphthyridin-5(6H)-one] | – | 6.91
CC(C)C[C@H](N)COc1ccc2c3ccncc3c(=O)n(CC(F)(F)F)c2c1 [Example 45, (S)-8-(2-amino-4-methylpentyloxy)-6-(2,2,2-trifluoroethyl)benzo[c][2,7]naphthyridin-5(6H)-one] | – | 7.54
COc1ccc(CNc2nccc3c2c(=O)n(C)c2cc(OC[C@@H](N)CC(C)C)ccc32)cc1 [Example 50, (S)-8-((2-amino-4-methylpentyl)oxy)-4-((4-methoxybenzyl)amino)-6-methylbenzo[c][2,7]naphthyridin-5(6H)-one] | – | 7.48
Cc1nccc2c1c(=O)n(C)c1cc(OC[C@@H](N)CC(C)C)c(C(=O)N(C)C)cc21 [Example 96, (S)-8-((2-amino-4-methylpentyl)oxy)-N,N,4,6-tetramethyl-5-oxo-5,6-dihydrobenzo[c][2,7]naphthyridine-9-carboxamide] | 5.70 to 7.00 | –
Cc1nccc2c1c(=O)n(C)c1cc(OCC(N)CC(F)(F)F)ccc21 (single isomer, unassigned) [Example 92] | 8.00 to 9.00 | –
Cc1nccc2c1c(=O)n(C)c1cc(OC[C@@H](N)CC3CCC3)ccc21 [Example 22, (S)-8-(2-amino-3-cyclobutylpropoxy)-4,6-dimethylbenzo[c][2,7]naphthyridin-5(6H)-one] | – | 7.92
COCCn1c(=O)c2c(C)nccc2c2ccc(OC[C@@H](N)CC(C)C)cc21 [Example 80, (S)-8-((2-amino-4-methylpentyl)oxy)-6-(2-methoxyethyl)-4-methylbenzo[c][2,7]naphthyridin-5(6H)-one] | – | 6.87
Cc1nccc2c1c(=O)n(C)c1cc(OC[C@@H](N)CC(C)C)c(C(C)(C)O)cc21 [Example 35, (S)-8-((2-amino-4-methylpentyl)oxy)-9-(2-hydroxypropan-2-yl)-4,6-dimethylbenzo[c][2,7]naphthyridin-5(6H)-one] | – | 6.94
